Experimental data: patent US9464082B2, “Aryl and arylalkyl substituted pyrazolyl and pyrimidinyl tricyclic enones as antioxidant inflammation modulators” (AbbVie Inc., priority 2014, dated 2016)

Test system: IFNγ-Induced NO Production
Experiment: Nitric Oxide Suppression Assay (Suppression of IFNγ-Induced NO Production)
Type: cell-based
Details: RAW264.7; RAW 264.7 mouse macrophage cells; 2 hour pre-treatment with compound (3 μM to 0.3 nM, 10 point curve); 20 ng/mL interferon gamma, ~18 hour; Griess detection; n=2-3 in duplicates
How it was run: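 Mouse RAW 264.7 macrophages pre-treated 2 h at 37 °C with compound (3 μM to 0.3 nM, 10 points; DMSO ≤1%), then stimulated with 20 ng/mL interferon gamma for ~18 h. Supernatant nitrite measured by Griess reaction, absorbance 520–550 nm. IC50 from curve fit of signal normalised to IFNγ alone, mean n=2-3 in duplicate.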

Structure (SMILES)	IC50
Cc1nc(-c2ccc(N3CCOCC3)c(Br)c2)c2c(n1)[C@@]1(c3ccccc3)C=C(C#N)C(=O)[C@@H](C)[C@@H]1CC2 [Example 146, (6aS,7S,10aR)-4-[3-bromo-4-(morpholin-4-yl)phenyl]-2,7-dimethyl-8-oxo-10a-phenyl-5,6,6a,7,8,10a-hexahydrobenzo[h]quinazoline-9-carbonitrile]	52.2 nM
Cc1nc(-c2ccc(-c3cncn3C)cc2)c2c(n1)[C@@]1(c3ccccc3)C=C(C#N)C(=O)[C@@H](C)[C@@H]1CC2 [Example 139, (6aS,7S,10aR)-2,7-dimethyl-4-[4-(1-methyl-1H-imidazol-5-yl)phenyl]-8-oxo-10a-phenyl-5,6,6a,7,8,10a-hexahydrobenzo[h]quinazoline-9-carbonitrile]	19 nM
C[C@@H]1C(=O)C(C#N)=C[C@]2(c3ccccc3)c3nn(C)c(-c4cccc(-c5cn[nH]c5)c4)c3CC[C@@H]12 [Example 167, (5aS,6S,9aR)-2,6-dimethyl-7-oxo-9a-phenyl-3-[3-(1H-pyrazol-4-yl)phenyl]-4,5,5a,6,7,9a-hexahydro-2H-benzo[g]indazole-8-carbonitrile]	3.27 nM
C[C@@H]1C(=O)C(C#N)=C[C@]2(c3ccccc3)c3n[nH]c(-c4cnn(-c5cccnc5)c4)c3CC[C@@H]12 [Example 158, (5aS,6S,9aR)-6-methyl-7-oxo-9a-phenyl-3-[1-(pyridin-3-yl)-1H-pyrazol-4-yl]-4,5,5a,6,7,9a-hexahydro-2H-benzo[g]indazole-8-carbonitrile]	33 nM
C[C@@H]1C(=O)C(C#N)=C[C@]2(c3ccccc3)c3n[nH]c(-c4cccnc4)c3CC[C@@H]12 [Example 86, (5aS,6S,9aR)-6-methyl-7-oxo-9a-phenyl-3-(pyridin-3-yl)-4,5,5a,6,7,9a-hexahydro-2H-benzo[g]indazole-8-carbonitrile]	3.95 nM
Cc1nc(-c2ccc3[nH]cnc3c2)c2c(n1)[C@@]1(c3ccc(F)cc3)C=C(C#N)C(=O)[C@@H](C)[C@@H]1CC2 [Example 91, (6aS,7S,10aR)-4-(1H-benzimidazol-5-yl)-10a-(4-fluorophenyl)-2,7-dimethyl-8-oxo-5,6,6a,7,8,10a-hexahydrobenzo[h]quinazoline-9-carbonitrile]	13.6 nM
Cc1nc(-c2cncnc2)c2c(n1)[C@@]1(c3ccccc3)C=C(C(N)=O)C(=O)[C@@H](C)[C@@H]1CC2 [Example 130, (6aS,7S,10aR)-2,7-dimethyl-8-oxo-10a-phenyl-4-(pyrimidin-5-yl)-5,6,6a,7,8,10a-hexahydrobenzo[h]quinazoline-9-carboxamide]	> 3000 nM
C[C@@H]1C(=O)C(C#N)=C[C@]2(c3ccc(C(=O)O)cc3)c3ncncc3CC[C@@H]12 [Example 66, 4-[(6aS,7S,10aR)-9-cyano-7-methyl-8-oxo-6,6a,7,8-tetrahydrobenzo[h]quinazolin-10a(5H)-yl]benzoic acid]	809 nM
C[C@@H]1C(=O)C(C#N)=C[C@]2(c3ccccc3)c3n[nH]c(-c4cncc(CO)c4)c3CC[C@@H]12 [Example 126, (5aS,6S,9aR)-3-[5-(hydroxymethyl)pyridin-3-yl]-6-methyl-7-oxo-9a-phenyl-4,5,5a,6,7,9a-hexahydro-2H-benzo[g]indazole-8-carbonitrile]	9.67 nM
C[C@@H]1C(=O)C(C#N)=C[C@]2(c3ccccc3)c3c(c(-c4cccnc4)nn3C)CC[C@@H]12 [Example 26, (5aS,6S,9aR)-1,6-dimethyl-7-oxo-9a-phenyl-3-(pyridin-3-yl)-4,5,5a,6,7,9a-hexahydro-1H-benzo[g]indazole-8-carbonitrile]	1.3 nM
COC(=O)n1cc(-c2nc(C)nc3c2CC[C@H]2[C@H](C)C(=O)C(C#N)=C[C@]32c2ccccc2)cn1 [Example 98, methyl 4-[(6aS,7S,10aR)-9-cyano-2,7-dimethyl-8-oxo-10a-phenyl-5,6,6a,7,8,10a-hexahydrobenzo[h]quinazolin-4-yl]-1H-pyrazole-1-carboxylate]	1.5 nM
C[C@@H]1C(=O)C(C#N)=C[C@]2(c3ccccc3)c3nc(-c4cc(Br)ccc4O)ncc3CC[C@@H]12 [Example 111, (6aS,7S,10aR)-2-(5-bromo-2-hydroxyphenyl)-7-methyl-8-oxo-10a-phenyl-5,6,6a,7,8,10a-hexahydrobenzo[h]quinazoline-9-carbonitrile]	12.3 nM
C[C@@H]1C(=O)C(C(N)=O)=C[C@]2(c3ccccc3)c3ncncc3CC[C@@H]12 [Example 131, (6aS,7S,10aR)-7-methyl-8-oxo-10a-phenyl-5,6,6a,7,8,10a-hexahydrobenzo[h]quinazoline-9-carboxamide]	1390 nM
C[C@@H]1C(=O)C(C#N)=C[C@]2(c3cccc(F)c3)c3ncncc3CC[C@@H]12 [Example 55, (6aS,7S,10aR)-10a-(3-fluorophenyl)-7-methyl-8-oxo-5,6,6a,7,8,10a-hexahydrobenzo[h]quinazoline-9-carbonitrile]	11.4 nM
C[C@@H]1C(=O)C(C#N)=C[C@]2(Cc3ccccc3)c3nn(C)cc3CC[C@@H]12 (racemic) [Example 162, rac-(5aS,6S,9aR)-9a-benzyl-2,6-dimethyl-7-oxo-4,5,5a,6,7,9a-hexahydro-2H-benzo[g]indazole-8-carbonitrile]	231 nM
C[C@@H]1C(=O)C(C#N)=C[C@]2(c3cccc(F)c3)c3n[nH]cc3CC[C@@H]12 [Example 53, (5aS,6S,9aR)-9a-(3-fluorophenyl)-6-methyl-7-oxo-4,5,5a,6,7,9a-hexahydro-2H-benzo[g]indazole-8-carbonitrile]	31.7 nM
COc1nc(OC)c2c(n1)[C@@]1(c3ccccc3)C=C(C#N)C(=O)[C@@H](C)[C@@H]1CC2 [Example 103, (6aS,7S,10aR)-2,4-dimethoxy-7-methyl-8-oxo-10a-phenyl-5,6,6a,7,8,10a-hexahydrobenzo[h]quinazoline-9-carbonitrile]	4.4 nM
C[C@@H]1C(=O)C(C#N)=C[C@]2(c3ccccc3)c3ncncc3CC[C@@H]12 [Example 1, (6aS,7S,10aR)-7-methyl-8-oxo-10a-phenyl-5,6,6a,7,8,10a-hexahydrobenzo[h]quinazoline-9-carbonitrile]	5.35 nM
Cc1nc(-c2ccoc2)c2c(n1)[C@@]1(c3ccccc3)C=C(C#N)C(=O)[C@@H](C)[C@@H]1CC2 [Example 23, (6aS,7S,10aR)-4-(3-furyl)-2,7-dimethyl-8-oxo-10a-phenyl-5,6,6a,7,8,10a-hexahydrobenzo[h]quinazoline-9-carbonitrile]	6.98 nM
COc1cccc(-c2nc(C)nc3c2CC[C@H]2[C@H](C)C(=O)C(C#N)=C[C@]32c2ccccc2)c1 [Example 43, (6aS,7S,10aR)-4-(3-methoxyphenyl)-2,7-dimethyl-8-oxo-10a-phenyl-5,6,6a,7,8,10a-hexahydrobenzo[h]quinazoline-9-carbonitrile]	16.5 nM
COc1cccc([C@]23C=C(C#N)C(=O)[C@@H](C)[C@@H]2CCc2cn(C)nc23)c1 (racemic) [Example 4, rac-(5aS,6S,9aR)-9a-(3-methoxyphenyl)-2,6-dimethyl-7-oxo-4,5,5a,6,7,9a-hexahydro-2H-benzo[g]indazole-8-carbonitrile]	114 nM
C[C@@H]1C(=O)C(C#N)=C[C@]2(c3ccccc3)c3nc(-c4ccncc4)ncc3CC[C@@H]12 [Example 29, (6aS,7S,10aR)-7-methyl-8-oxo-10a-phenyl-2-(pyridin-4-yl)-5,6,6a,7,8,10a-hexahydrobenzo[h]quinazoline-9-carbonitrile]	6.36 nM
COC(=O)c1ccc([C@]23C=C(C#N)C(=O)[C@@H](C)[C@@H]2CCc2c[nH]nc23)cc1 [Example 63, methyl 4-[(5aS,6S,9aR)-8-cyano-6-methyl-7-oxo-2,4,5,5a,6,7-hexahydro-9aH-benzo[g]indazol-9a-yl]benzoate]	26.6 nM
Cc1nc(-c2cccc(-c3cccc(NS(C)(=O)=O)c3)c2)c2c(n1)[C@@]1(c3ccccc3)C=C(C#N)C(=O)[C@@H](C)[C@@H]1CC2 [Example 124, N-{3′-[(6aS,7S,10aR)-9-cyano-2,7-dimethyl-8-oxo-10a-phenyl-5,6,6a,7,8,10a-hexahydrobenzo[h]quinazolin-4-yl]biphenyl-3-yl}methanesulfonamide]	1.35 nM
COc1cccc([C@]23C=C(C#N)C(=O)[C@@H](C)[C@@H]2CCc2cnn(C)c23)c1 (racemic) [Example 5, rac-(5aS,6S,9aR)-9a-(3-methoxyphenyl)-1,6-dimethyl-7-oxo-4,5,5a,6,7,9a-hexahydro-1H-benzo[g]indazole-8-carbonitrile]	41.3 nM
C[C@@H]1C(=O)C(C#N)=C[C@]2(c3ccccc3)c3nc(-c4cncnc4)ncc3CC[C@@H]12 [Example 49, (6aS,7S,10aR)-7-methyl-8-oxo-10a-phenyl-2-(pyrimidin-5-yl)-5,6,6a,7,8,10a-hexahydrobenzo[h]quinazoline-9-carbonitrile]	7.15 nM
Cc1nc(-c2ccc(-c3cncnc3)cc2)c2c(n1)[C@@]1(c3ccccc3)C=C(C(N)=O)C(=O)[C@@H](C)[C@@H]1CC2 [Example 145, (6aS,7S,10aR)-2,7-dimethyl-8-oxo-10a-phenyl-4-[4-(pyrimidin-5-yl)phenyl]-5,6,6a,7,8,10a-hexahydrobenzo[h]quinazoline-9-carboxamide]	> 1000 nM
C[C@@H]1C(=O)C(C#N)=C[C@]2(c3ccccc3)c3nn(C)c(-c4cccc(-c5cccc(C(=O)O)c5)c4)c3CC[C@@H]12 [Example 166, 3′-[(5aS,6S,9aR)-8-cyano-2,6-dimethyl-7-oxo-9a-phenyl-4,5,5a,6,7,9a-hexahydro-2H-benzo[g]indazol-3-yl]biphenyl-3-carboxylic acid]	65.6 nM
CCCNC(=O)c1cccc([C@]23C=C(C#N)C(=O)[C@@H](C)[C@@H]2CCc2cncnc23)c1 [Example 96, 3-[(6aS,7S,10aR)-9-cyano-7-methyl-8-oxo-6,6a,7,8-tetrahydrobenzo[h]quinazolin-10a(5H)-yl]-N-propylbenzamide]	78.2 nM
